Experimental data taken from PMC7347136 (PLoS ONE, 2020).

Experiments:
Test in all cases: Carna kinase panel screen
Assay type in all cases: biochemical
Conditions in all cases: read-out: % Inhibition ± SD
[1] = molecular target: T1, CDK9 (Homo sapiens, UniProt P50750)
T1 construct: purchased Carna Biosciences
Outline: (§1)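 10-pt curves; [ATP] ~Km; IC50 by 4PL fit of % inhibition.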

[2] = molecular target: T2, CHK2 (Homo sapiens, UniProt O96017)
T2 construct: purchased Carna Biosciences
Outline: as §1

[3] = molecular target: T3, DYRK1B (Homo sapiens, UniProt Q9Y463)
T3 construct: purchased Carna Biosciences
Outline: as §1

[4] = molecular target: T4, EphA6 (Homo sapiens, UniProt Q9UF33)
T4 construct: purchased Carna Biosciences
Outline: as §1

[5] = molecular target: T5, EphA7 (Homo sapiens, UniProt Q15375)
T5 construct: purchased Carna Biosciences
Outline: (§2)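 ATP was used at roughly Km levels while compounds were titrated over a 10-point curve. IC50 values came from four-parameter logistic fits of concentration versus percentage inhibition.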

[6] = molecular target: T6, FGFR3 (Homo sapiens, UniProt P22607)
T6 construct: purchased Carna Biosciences
Outline: as §1

[7] = molecular target: T7, FGR (Homo sapiens, UniProt P09769)
T7 construct: purchased Carna Biosciences
Outline: as §2

[8] = molecular target: T8, FRK (Homo sapiens, UniProt P42685)
T8 construct: purchased Carna Biosciences
Outline: as §1

[9] = molecular target: T9, GSK3b (Homo sapiens, UniProt P49841)
T9 construct: purchased Carna Biosciences
Outline: as §1

[10] = molecular target: T10, HER2 (Homo sapiens, UniProt P04626)
T10 construct: purchased Carna Biosciences
Outline: as §1

[11] = molecular target: T11, HGK (Homo sapiens, UniProt O95819)
T11 construct: purchased Carna Biosciences
Outline: as §1

[12] = molecular target: T12, IGF1R (Homo sapiens, UniProt P08069)
T12 construct: purchased Carna Biosciences
Outline: as §2

[13] = molecular target: T13, IKKb (Homo sapiens, UniProt O14920)
T13 construct: purchased Carna Biosciences
Outline: as §1

[14] = molecular target: T14, KIT (Homo sapiens, UniProt P10721)
T14 construct: purchased Carna Biosciences
Outline: as §1

[15] = molecular target: T15, LIMK1 (Homo sapiens, UniProt P53667)
T15 construct: purchased Carna Biosciences
Outline: as §2

[16] = molecular target: T16, MAP3K4 (Homo sapiens, UniProt Q9Y6R4)
T16 construct: purchased Carna Biosciences
Outline: as §1

[17] = molecular target: T17, MAPKAPK2 (Homo sapiens, UniProt P49137)
T17 construct: purchased Carna Biosciences
Outline: as §1

[18] = molecular target: T18, MARK1 (Homo sapiens, UniProt Q9P0L2)
T18 construct: purchased Carna Biosciences
Outline: as §1

[19] = molecular target: T19, MARK2 (Homo sapiens, UniProt Q7KZI7)
T19 construct: purchased Carna Biosciences
Outline: as §1

[20] = molecular target: T20, MNK2 (Homo sapiens, UniProt Q9HBH9)
T20 construct: purchased Carna Biosciences
Outline: as §1

[21] = molecular target: T21, MST2 (Homo sapiens, UniProt Q13188)
T21 construct: purchased Carna Biosciences
Outline: as §1

[22] = molecular target: T22, NEK1 (Homo sapiens, UniProt Q96PY6)
T22 construct: purchased Carna Biosciences
Outline: as §2

[23] = molecular target: T23, NEK2 (Homo sapiens, UniProt P51955)
T23 construct: purchased Carna Biosciences
Outline: as §1

[24] = molecular target: T24, NEK6 (Homo sapiens, UniProt Q9HC98)
T24 construct: purchased Carna Biosciences
Outline: as §1

[25] = molecular target: T25, NEK9 (Homo sapiens, UniProt Q8TD19)
T25 construct: purchased Carna Biosciences
Outline: as §1

[26] = molecular target: T26, PAK1 (Homo sapiens, UniProt Q13153)
T26 construct: purchased Carna Biosciences
Outline: as §1

[27] = molecular target: T27, PAK6 (Homo sapiens, UniProt Q9NQU5)
T27 construct: purchased Carna Biosciences
Outline: as §1

[28] = molecular target: T28, PKACa (Homo sapiens, UniProt P17612)
T28 construct: purchased Carna Biosciences
Outline: as §1

[29] = molecular target: T29, PKCb2 (Homo sapiens, UniProt P05771)
T29 construct: purchased Carna Biosciences
Outline: as §1

[30] = molecular target: T30, PKCg (Homo sapiens, UniProt P05129)
T30 construct: purchased Carna Biosciences
Outline: as §1

[31] = molecular target: T31, PKCz (Homo sapiens, UniProt Q05513)
T31 construct: purchased Carna Biosciences
Outline: as §2

[32] = molecular target: T32, PKD2 (Homo sapiens, UniProt Q9BZL6)
T32 construct: purchased Carna Biosciences
Outline: as §1

[33] = molecular target: T33, PLK4 (Homo sapiens, UniProt O00444)
T33 construct: purchased Carna Biosciences
Outline: as §2

[34] = molecular target: T34, RAF1 (Homo sapiens, UniProt P04049)
T34 construct: purchased Carna Biosciences
Outline: as §1

[35] = molecular target: T35, RSK3 (Homo sapiens, UniProt Q15349)
T35 construct: purchased Carna Biosciences
Outline: as §1

[36] = molecular target: T36, RSK4 (Homo sapiens, UniProt Q9UK32)
T36 construct: purchased Carna Biosciences
Outline: as §1

[37] = molecular target: T37, SRC (Homo sapiens, UniProt P12931)
T37 construct: purchased Carna Biosciences
Outline: as §1

[38] = molecular target: T38, TBK1 (Homo sapiens, UniProt Q9UHD2)
T38 construct: purchased Carna Biosciences
Outline: as §1

[39] = molecular target: T39, TEC (Homo sapiens, UniProt P42680)
T39 construct: purchased Carna Biosciences
Outline: as §1

[40] = molecular target: T40, TRKA (Homo sapiens, UniProt P04629)
T40 construct: purchased Carna Biosciences
Outline: as §1

[41] = molecular target: T41, TRKB (Homo sapiens, UniProt Q16620)
T41 construct: purchased Carna Biosciences
Outline: as §1

[42] = molecular target: T42, TYK2 (Homo sapiens, UniProt P29597)
T42 construct: purchased Carna Biosciences
Outline: as §1

[43] = molecular target: T43, WEE1 (Homo sapiens, UniProt P30291)
T43 construct: purchased Carna Biosciences
Outline: as §1

[44] = molecular target: T44, YES (Homo sapiens, UniProt P07947)
T44 construct: purchased Carna Biosciences
Outline: as §1

T31 sequence (Q05513 whole entry): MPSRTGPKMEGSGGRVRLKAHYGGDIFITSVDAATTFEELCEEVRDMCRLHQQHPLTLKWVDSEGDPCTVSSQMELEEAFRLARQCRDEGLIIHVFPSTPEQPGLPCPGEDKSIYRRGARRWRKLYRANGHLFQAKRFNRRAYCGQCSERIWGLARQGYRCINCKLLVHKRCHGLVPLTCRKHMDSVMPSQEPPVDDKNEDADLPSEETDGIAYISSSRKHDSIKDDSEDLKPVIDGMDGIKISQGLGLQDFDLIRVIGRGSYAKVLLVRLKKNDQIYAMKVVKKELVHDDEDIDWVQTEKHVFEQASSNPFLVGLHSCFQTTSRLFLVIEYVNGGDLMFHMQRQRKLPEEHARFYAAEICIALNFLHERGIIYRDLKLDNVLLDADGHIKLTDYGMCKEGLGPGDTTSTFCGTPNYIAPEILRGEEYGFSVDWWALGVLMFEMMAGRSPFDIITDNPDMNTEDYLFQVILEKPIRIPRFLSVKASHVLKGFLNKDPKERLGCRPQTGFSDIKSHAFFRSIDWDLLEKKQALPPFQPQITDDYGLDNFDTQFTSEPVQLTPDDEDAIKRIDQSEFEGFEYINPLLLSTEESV
T19 sequence (Q7KZI7 whole entry): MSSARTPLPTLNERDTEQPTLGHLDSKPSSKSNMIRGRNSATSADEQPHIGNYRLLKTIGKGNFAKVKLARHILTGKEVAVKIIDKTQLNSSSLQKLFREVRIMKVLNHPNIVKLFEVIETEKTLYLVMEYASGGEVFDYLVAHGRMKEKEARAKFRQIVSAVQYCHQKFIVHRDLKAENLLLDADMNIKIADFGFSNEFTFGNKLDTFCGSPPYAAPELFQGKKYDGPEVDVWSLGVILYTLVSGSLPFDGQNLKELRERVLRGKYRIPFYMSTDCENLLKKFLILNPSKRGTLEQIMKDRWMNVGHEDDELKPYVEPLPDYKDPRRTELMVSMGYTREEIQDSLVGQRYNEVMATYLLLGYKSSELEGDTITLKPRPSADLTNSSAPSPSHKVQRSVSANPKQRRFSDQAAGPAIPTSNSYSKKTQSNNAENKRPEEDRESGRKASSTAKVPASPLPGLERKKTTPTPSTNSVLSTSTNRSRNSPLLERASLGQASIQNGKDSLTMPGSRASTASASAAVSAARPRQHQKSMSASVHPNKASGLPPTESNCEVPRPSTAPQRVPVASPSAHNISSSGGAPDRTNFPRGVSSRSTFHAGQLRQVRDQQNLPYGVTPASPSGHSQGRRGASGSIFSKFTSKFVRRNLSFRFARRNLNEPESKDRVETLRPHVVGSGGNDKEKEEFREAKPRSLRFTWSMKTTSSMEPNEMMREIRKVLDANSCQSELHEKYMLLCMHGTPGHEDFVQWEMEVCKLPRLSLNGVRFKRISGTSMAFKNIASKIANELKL
T18 sequence (Q9P0L2 whole entry): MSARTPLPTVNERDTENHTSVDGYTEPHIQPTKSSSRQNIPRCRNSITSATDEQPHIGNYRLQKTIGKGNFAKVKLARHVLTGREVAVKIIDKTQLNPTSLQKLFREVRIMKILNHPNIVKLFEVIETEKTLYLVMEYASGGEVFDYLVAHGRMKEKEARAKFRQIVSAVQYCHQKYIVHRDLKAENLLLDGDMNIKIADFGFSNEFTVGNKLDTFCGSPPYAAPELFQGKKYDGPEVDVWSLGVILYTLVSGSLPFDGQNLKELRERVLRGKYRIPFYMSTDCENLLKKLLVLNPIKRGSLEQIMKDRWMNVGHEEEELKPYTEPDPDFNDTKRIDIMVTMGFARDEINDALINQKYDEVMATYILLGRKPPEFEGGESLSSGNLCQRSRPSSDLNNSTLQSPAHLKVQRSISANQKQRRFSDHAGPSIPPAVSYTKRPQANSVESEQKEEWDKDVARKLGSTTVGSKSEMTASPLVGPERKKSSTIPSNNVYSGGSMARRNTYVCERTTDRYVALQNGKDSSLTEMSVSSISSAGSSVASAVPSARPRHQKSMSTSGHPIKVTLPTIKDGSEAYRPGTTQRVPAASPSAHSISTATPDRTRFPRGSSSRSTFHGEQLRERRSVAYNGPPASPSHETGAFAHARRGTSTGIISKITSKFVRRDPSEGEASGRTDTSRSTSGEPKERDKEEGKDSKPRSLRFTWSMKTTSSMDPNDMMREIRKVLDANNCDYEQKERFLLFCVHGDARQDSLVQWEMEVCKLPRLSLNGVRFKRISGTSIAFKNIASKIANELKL
T12 sequence (P08069 31-1367): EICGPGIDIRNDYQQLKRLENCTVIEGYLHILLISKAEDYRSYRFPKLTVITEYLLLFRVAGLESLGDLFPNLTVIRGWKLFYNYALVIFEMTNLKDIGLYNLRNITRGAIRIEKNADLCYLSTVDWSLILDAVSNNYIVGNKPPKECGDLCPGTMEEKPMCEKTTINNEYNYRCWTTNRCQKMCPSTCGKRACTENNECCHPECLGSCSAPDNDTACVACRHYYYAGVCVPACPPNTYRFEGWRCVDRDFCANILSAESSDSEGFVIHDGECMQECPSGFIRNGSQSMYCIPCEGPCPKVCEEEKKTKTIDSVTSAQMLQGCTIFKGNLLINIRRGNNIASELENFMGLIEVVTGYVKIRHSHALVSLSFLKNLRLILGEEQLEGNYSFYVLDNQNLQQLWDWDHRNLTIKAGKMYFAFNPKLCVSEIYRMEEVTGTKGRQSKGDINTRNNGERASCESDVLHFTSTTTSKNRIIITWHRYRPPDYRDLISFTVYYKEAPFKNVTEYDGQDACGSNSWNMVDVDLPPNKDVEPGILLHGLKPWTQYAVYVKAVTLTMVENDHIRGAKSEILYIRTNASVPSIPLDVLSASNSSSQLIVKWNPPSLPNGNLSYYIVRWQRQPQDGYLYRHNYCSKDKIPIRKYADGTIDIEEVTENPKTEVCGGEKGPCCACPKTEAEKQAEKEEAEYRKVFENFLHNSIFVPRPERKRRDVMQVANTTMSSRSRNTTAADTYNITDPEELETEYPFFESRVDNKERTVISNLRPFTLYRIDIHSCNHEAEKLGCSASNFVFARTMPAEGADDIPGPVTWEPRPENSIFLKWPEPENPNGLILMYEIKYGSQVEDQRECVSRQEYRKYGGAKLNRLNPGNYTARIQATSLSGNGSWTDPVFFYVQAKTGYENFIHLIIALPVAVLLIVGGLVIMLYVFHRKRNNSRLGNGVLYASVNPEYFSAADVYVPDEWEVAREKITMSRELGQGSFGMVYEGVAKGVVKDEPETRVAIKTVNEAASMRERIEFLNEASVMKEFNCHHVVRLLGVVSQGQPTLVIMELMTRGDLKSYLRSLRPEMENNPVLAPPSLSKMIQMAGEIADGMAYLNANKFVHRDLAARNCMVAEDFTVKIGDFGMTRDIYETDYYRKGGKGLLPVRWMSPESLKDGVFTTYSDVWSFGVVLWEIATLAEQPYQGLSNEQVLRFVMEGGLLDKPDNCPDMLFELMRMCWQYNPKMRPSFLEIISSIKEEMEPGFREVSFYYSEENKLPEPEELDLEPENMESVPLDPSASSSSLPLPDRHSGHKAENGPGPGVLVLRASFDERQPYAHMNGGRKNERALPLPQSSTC
T41 sequence (Q16620 32-822): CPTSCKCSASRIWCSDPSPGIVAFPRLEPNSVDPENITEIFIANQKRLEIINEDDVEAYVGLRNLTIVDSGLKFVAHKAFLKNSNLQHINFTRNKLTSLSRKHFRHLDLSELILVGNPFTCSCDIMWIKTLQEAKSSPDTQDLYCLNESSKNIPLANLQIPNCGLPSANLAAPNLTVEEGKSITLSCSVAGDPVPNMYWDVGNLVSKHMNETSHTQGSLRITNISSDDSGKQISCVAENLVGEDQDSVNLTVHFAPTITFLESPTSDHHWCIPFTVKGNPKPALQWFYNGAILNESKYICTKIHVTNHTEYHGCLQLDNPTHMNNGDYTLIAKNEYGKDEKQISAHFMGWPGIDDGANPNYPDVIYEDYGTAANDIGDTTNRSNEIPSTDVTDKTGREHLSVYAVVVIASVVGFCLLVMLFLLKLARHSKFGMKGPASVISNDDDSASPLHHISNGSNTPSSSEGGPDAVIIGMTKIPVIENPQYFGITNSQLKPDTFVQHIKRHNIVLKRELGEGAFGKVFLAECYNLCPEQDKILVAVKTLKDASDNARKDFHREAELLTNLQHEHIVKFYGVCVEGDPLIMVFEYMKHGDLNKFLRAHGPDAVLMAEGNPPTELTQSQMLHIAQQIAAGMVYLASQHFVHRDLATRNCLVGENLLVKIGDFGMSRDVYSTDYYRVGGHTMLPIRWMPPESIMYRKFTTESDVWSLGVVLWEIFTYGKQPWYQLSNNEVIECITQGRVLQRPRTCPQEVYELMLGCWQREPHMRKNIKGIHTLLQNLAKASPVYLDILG

For `CC[C@H](Nc1nc(NCc2cnc(C)cc2C)c2ncn(C(C)C)c2n1)[C@@H](C)O` [Fadraciclib, 2-pentanol, 3-[[6-[[(4,6-dimethyl-3-pyridinyl)methyl]amino]-9-(1-methylethyl)-9Hpurin-2-yl]amino]-, (2R,3S)], the inhibition at 1 µM [1] was 96.6 ± 3.2%, the inhibition at 1 µM [2] was -7.6 ± 0.1% and the inhibition at 1 µM [3] was 15.5 ± 1.3%. The inhibition at 1 µM [4] was 5.7 ± 0.3%, the inhibition at 1 µM [5] was 6 ± 0.3% and the inhibition at 1 µM [6] was -5.6 ± 0.2%. It also gave an inhibition at 1 µM [7] of 3.3 ± 0.1%, an inhibition at 1 µM [8] of 3.6% and an inhibition at 1 µM [9] of 23.8 ± 1%. It also gave an inhibition at 1 µM [10] of -17.6 ± 1%, an inhibition at 1 µM [11] of -23.8 ± 2.7% and an inhibition at 1 µM [12] of -17.1 ± 0.2%. It also gave an inhibition at 1 µM [13] of 0.2%, an inhibition at 1 µM [14] of -2.4 ± 0.1% and an inhibition at 1 µM [15] of 12.3 ± 0.4%. The inhibition at 1 µM [16] was 7.6 ± 0.1%, the inhibition at 1 µM [17] was -8.6 ± 0.1% and the inhibition at 1 µM [18] was -9.7 ± 0.1%. For the same compound, the inhibition at 1 µM [19] was -1.9 ± 0.1%, the inhibition at 1 µM [20] was -4.3 ± 0.1% and the inhibition at 1 µM [21] was -1.5%. The inhibition at 1 µM [22] was -18.3 ± 0.1%, the inhibition at 1 µM [23] was -18.1 ± 0.6% and the inhibition at 1 µM [24] was -16.6 ± 0.5%. For the same compound, the inhibition at 1 µM [25] was -23.1 ± 0.2%, the inhibition at 1 µM [26] was -5.8 ± 0.2% and the inhibition at 1 µM [27] was -5.4%. It also gave an inhibition at 1 µM [28] of -0.8%, an inhibition at 1 µM [29] of -14.3 ± 0.1% and an inhibition at 1 µM [30] of 17.2%. The inhibition at 1 µM [31] was -0.2%, the inhibition at 1 µM [32] was -13.4 ± 0.6% and the inhibition at 1 µM [33] was -38.5 ± 1%. It also gave an inhibition at 1 µM [34] of -1.1 ± 0.1%, an inhibition at 1 µM [35] of 7.7% and an inhibition at 1 µM [36] of 6 ± 0.2%. It also gave an inhibition at 1 µM [37] of 2.7%, an inhibition at 1 µM [38] of -4.8 ± 0.1% and an inhibition at 1 µM [39] of -14.9%. It also gave an inhibition at 1 µM [40] of -10.3 ± 0.3%, an inhibition at 1 µM [41] of -11.4 ± 0.4% and an inhibition at 1 µM [42] of -0.1%. For the same compound, the inhibition at 1 µM [43] was 35.1 ± 0.1% and the inhibition at 1 µM [44] was -7 ± 0.1%.
